Data set [1] has as its system MCF10A, MDA-MB-231, MDA-MB-361 and MDA-MB-453 cells. The experiment in a line: Intracellular ROS, DCFDA assay. Format: cell-based. The following applies: 125 nM, 30 min. As for the experimental part:
The cells were resuspended in dichlorodihydrofluorescein diacetate (DCFH-DA) for 30 min […] using the CellQuest software v4.0.1 (Becton Dickinson and Company, Franklin Lakes, NJ, USA) to measure the ROS levels. The DCFH-DA levels were measured using a SPECTRAmax PLUS Microplate Spectrophotometer Plate Reader (Molecular Devices Corporation).

Data set [2] concerns p-AKT, p-P53, p-CHK1, p-CHK2 in MDA-MB-231, MDA-MB-361 and MDA-MB-453 cells. In kind it is cell-based, Human. The settings on record: for phosphorylation of AKT at Thr308: data not shown; for phosphorylation of CHK2 at T68: most notably in MDA-MB-361 and MDA-MB-453 versus vehicle control, 24 h. The source says:
Cells were lysed in RIPA buffer (Thermo Fisher Scientific, Waltham, MA, USA, Cat#BP-115) supplemented with protease and phosphatase inhibitors (Thermo Fisher Scientific, Cat#88669). […] Peroxidase-conjugated secondary antibodies (Santa Cruz Biotechnology) were used and protein signals were detected using Pierce ECL western blotting substrate (Thermo Fisher Scientific, Cat# 32106).

The subject of data set [3] is MDA-MB-231 cells.
Procedure: (§1) Growth kinetics of fibroblasts, MCF10A, MDA-MB-231, MDA-MB-361 and MDA-MB-453 cells was determined by the 4,5-dimethylthiazol-2-yl)-2,5-diphenyltetrazolium bromide (MTT) assay. Briefly, 2 × 10^4 cells/well were seeded in 96 well plates in triplicate. […] MDA-MB-231 cells were treated with 500–5000 nM, MDA-MB-361 with 50–450 nM and MDA-MB-453 with 100–4000 nM of doxorubicin for 72 h. […] MDA-MB-231 cells were treated with 50–50,000 pM docetaxel. MDA-MB-361 cells were treated with 10–90 nM of docetaxel. MDA-MB-453 cells were subjected 50–10,000 pM of docetaxel. The cell proliferation was analyzed after 72 h and represented as mean of triplicate values relative to DMSO control.
The subject of data set [4] is MDA-MB-361 cells.
Procedure: as §1
Data set [5] has as its system MDA-MB-453 cells.
Procedure: as §1
In data set [6] the test system is MDA-MB-361 cells. The data set is described as follows: cells. The settings on record: Homo sapiens, MDA-MB-361, 72 h.
Procedure: as §1
Data set [7] relates to MDA-MB-231 cells. The data set is described as follows: MTT cell viability assay, 72 h. A general note: Tetrazolium assays rely on reduction of a dye to a coloured formazan, in cell work by metabolically active cells.
Procedure: as §1
Data set [8] deals with MDA-MB-453 cells. The data set is described as follows: MTT cell viability assay, 72 h.
Procedure: as §1
The test system of another data set is NH fibroblasts. The data set is described as follows: cells. Format: cell-based.
For another data set, the system named is MCF10A cells. The experiment in a line: cells. The following applies: for pIC50: 72 h MTT. In kind it is cell-based.
In another data set the test system is PI3Kɣ. The arrangement: method as in PMID 19584227. The settings on record: read-out: IC50 against PI3Kɣ; cited from earlier work.
Data set [9] relates to PIK3CA-mutated, hormone receptor (HR)-positive, HER2-negative advanced breast cancer. Details: method as in PMID 31091374. The following applies: cited from earlier work.
Data set [10] relates to MDA-MB-231, MDA-MB-361 and MDA-MB-453 cells. The experiment in a line: MTT cell viability assay, combination treatments, 72 h. In kind it is cell-based, Human.
Procedure: as §1

The values that follow come from paper PMC7923228, “Phosphoinositide 3-Kinase (PI3K) Reactive Oxygen Species (ROS)-Activated Prodrug in Combination with Anthracycline Impairs PI3K Signaling, Increases DNA Damage Response and Reduces Breast Cancer Cell Growth” (International Journal of Molecular Sciences, 2021).

As usually defined, the pIC50 is the IC50 on a negative log10 scale, so that one unit is a factor of ten.

pIC50: −log10 of the molar value. Values joined by “and” are separate entries in the source; they are usually repeats but may differ in a detail not shown here. Equal entries are not always repeated. Where two headings read alike, the source gives them in different places.

Procedure for MCF10A cells: as §1

Take `COc1cccc2c1C(=O)c1c(O)c3c(c(O)c1C2=O)C[C@@](O)(C(=O)CO)C[C@@H]3O[C@H]1C[C@H](N)[C@H](O)[C@H](C)O1` [Doxorubicin]: the ROS levels result in data set [1] is reported as “induced ROS”. Also, the “p53 phosphorylation at Ser15” value in data set [2] is given as “didn’t observe p53 post-translational modification activation”. Moreover, the “phosphorylation of AKT at Thr308” value in data set [2] is reported as “no effect”. For the same compound, the “phosphorylation of CHK2 at T68” value in data set [2] is given as “increased phosphorylation”. The pIC50 in the data set on MDA-MB-231 cells [3] was 6.73 and 6.83; in the data set with MDA-MB-361 cells [4], 6.95 and 6.96 and 7.14; in the data set with MDA-MB-453 cells [5], 6.28 and 6.29 and 6.32; in the data set on MDA-MB-361 cells [6] (read-out: IC50 (MDA-MB-361)) it was 6.94; with MDA-MB-231 cells [7] (Homo sapiens, MDA-MB-231, 72 h, read-out: IC50 (MDA-MB-231)), 6.39; in the data set with MDA-MB-453 cells [8] (Homo sapiens, MDA-MB-453, 72 h, read-out: IC50 (MDA-MB-453)), 6.24.

For the compound `CC(=O)N[C@@H](CS)C(=O)O` [NAC, N-Acetyl Cysteine], the “rescue of antiproliferative effects of RIDR-PI-103 and doxorubicin” value with MDA-MB-231 cells [7] (MDA-MB-231, 10 mM NAC, 125 nM doxorubicin ± 30 µM RIDR-PI-103, 24 hour) is on record as “rescued the antiproliferative effects”.

In the case of `Oc1cccc(-c2nc(N3CCOCC3)c3oc4ncccc4c3n2)c1` [PI-103, 3-(4-morpholinopyrido[3′,2′:4,5]furo[3,2-d]pyrimidin-2-yl)phenol], the pIC50 was 5.41 in the data set on NH fibroblasts (Fibroblast, fibroblasts, 72 h MTT); 5.42 with MCF10A cells (Homo sapiens, MCF-10A); 5.77 in the data set on MDA-MB-361 cells [6]; 7.82 with PI3Kɣ; 6.09 in the data set on MDA-MB-453 cells [8] (Homo sapiens, MDA-MB-453, 72 h).

On to `Cc1nc(NC(=O)N2CCC[C@H]2C(N)=O)sc1-c1ccnc(C(C)(C)C(F)(F)F)c1` [alpelisib, Alpelisib], for which the “improvement of progression-free survival compared with fulvestrant alone” value in data set [9] (alpelisib in combination with fulvestrant, patients who had received endocrine therapy previously) is recorded as “about 5 months”. Besides, the adverse events result in data set [9] (patients receiving alpelisib) is on record as “high risk of hyperglycemia-related adverse events”.

For the compound `CC(=O)O[C@@]12CO[C@@H]1C[C@H](O)[C@@]1(C)C(=O)[C@H](O)C3=C(C)[C@@H](OC(=O)[C@H](O)[C@@H](NC(=O)OC(C)(C)C)c4ccccc4)C[C@@](O)([C@@H](OC(=O)c4ccccc4)[C@H]21)C3(C)C` [docetaxel], the “suppression of breast cancer cell growth in combination with RIDR-PI-103” value in data set [10] (docetaxel + 10, 15 or 30 µM RIDR-PI-103, 72 h) is given as “less effective”.

On to “ROS-induced drug release 3-(4-morpholinopyrido[3′,2′:4,5]furo[3,2-d]pyrimidin-2-yl)phenol [RIDR-PI-103]”, for which the “response to treatment (growth)” value in the data set with NH fibroblasts (normal fibroblasts, 50 µM or greater, 72 h) was “did not respond appreciably”; in the data set with MCF10A cells (50 µM or greater, 72 h) it was “did not respond appreciably”. Moreover, the negative logarithm of the IC50 (pIC50) with MCF10A cells was 4.10; with MDA-MB-361 cells [4] (MDA-MB-361, 72 h MTT) it was 4.37; with MDA-MB-231 cells [7] (MDA-MB-231, 72 h MTT) it was 4.33; with MDA-MB-453 cells [8] (MDA-MB-453, 72 h MTT) it was 4.31. The “phosphorylation of AKT at Thr308” value in data set [2] is given as “no effect”. The “phosphorylation of CHK2 at T68” value in [2] is on record as “increased phosphorylation”. In addition, the “effect on cytotoxicity of doxorubicin” value in data set [10] (10, 15 and 30 µM RIDR-PI-103, MDA-MB-231, MDA-MB-361 and MDA-MB-453) is “enhances the cytotoxicity”. Further, in [10] (three breast cancer cell lines, 50 µM or greater, 72 h), the growth inhibition result was “showed growth inhibition”.
